This is an account of results in US8906904B2, “Alkoxy pyrazoles as soluble guanylate cyclase activators” (Boehringer Ingelheim International GmbH, priority 2012, dated 2014).

A short description of this data set: Assessment of solubility (McIlvaine buffers, 24 h shake, UPLC-UV). It counts as physicochemical. The conditions noted are these: kinetic from dmso stock. Put shortly: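 Compounds from 10 mM DMSO stocks were shaken for 24 h at room temperature in McIlvaine buffers at pH 2.2, 4.5 and 6.8 (2.5% v/v DMSO final), then filtered. Filtrates were quantified by UPLC-UV at 254 nm against a 50:50 acetonitrile/water reference assumed fully dissolved, as a single determination.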

Values after ≈ are worked out from the molar mass of the structure shown.

A word on the solubility: it is how much of the substance goes into solution per volume. A low value points to a poorly soluble substance. As for `CC(C)Oc1c(C(=O)O)cnn1-c1cccc(-c2ccccc2OCc2ccc3c(c2)CCN(C2CCOCC2)C3)n1` [Compound 144], the solubility at 24 h turned out to be 110 µg/mL (≈ 193 µM) (pH 2.2, aqueous buffer); 89 µg/mL (≈ 157 µM) (pH 4.5, aqueous buffer); 93 µg/mL (≈ 164 µM) (pH 6.8, aqueous buffer).

The compound `COc1c(C(=O)O)cnn1-c1cccc(-c2cccc(C)c2OCc2cc(C)c3c(c2C)CN(C2CCOCC2)C3)n1` [Compound 145] registered a solubility at 24 h (pH 2.2, aqueous buffer) of 110 µg/mL (≈ 193 µM); a solubility at 24 h (pH 4.5, aqueous buffer) of 92 µg/mL (≈ 162 µM); a solubility at 24 h (pH 6.8, aqueous buffer) of 94 µg/mL (≈ 165 µM).

Turning to `CCOc1c(C(=O)O)cnn1-c1cccc(-c2cccc(C)c2OCc2ccc3c(c2C)CCN(CC2CCCOC2)C3)n1` (stereo not drawn) [Compound 146], the solubility at 24 h runs as follows: (pH 2.2, aqueous buffer) 100 µg/mL (≈ 168 µM); (pH 4.5, aqueous buffer) 88 µg/mL (≈ 147 µM); (pH 6.8, aqueous buffer) 79 µg/mL (≈ 132 µM).

`CCOc1c(C(=O)O)cnn1-c1cccc(-c2cccc(C)c2OCc2ccc3c(c2C)CCN(C(=O)C2CCOCC2)C3)n1` [Compound 147, 5-Ethoxy-1-(6-{3-methyl-2-[5-methyl-2-(tetrahydro-pyran-4-carbonyl)-1,2,3,4-tetrahydro-isoquinolin-6-ylmethoxy]-phenyl}-pyridin-2-yl)-1H-pyrazole-4-carboxylic acid]: the solubility at 24 h turned out to be 1.2 µg/mL (≈ 1.96 µM) (pH 2.2, aqueous buffer); 3.1 µg/mL (≈ 5.08 µM) (pH 4.5, aqueous buffer); 75 µg/mL (≈ 123 µM) (pH 6.8, aqueous buffer).

Consider `COCCOc1c(C(=O)O)cnn1-c1cccc(-c2cccc(C)c2OCc2ccc3c(c2C)CCN(C2CCCOC2)C3)n1` (stereo not drawn) [Compound 149], for which the solubility at 24 h by setting is: (pH 2.2, aqueous buffer) 110 µg/mL (≈ 180 µM); (pH 4.5, aqueous buffer) 78 µg/mL (≈ 127 µM); (pH 6.8, aqueous buffer) 81 µg/mL (≈ 132 µM).

For the compound `COCCOc1c(C(=O)O)cnn1-c1cccc(-c2cccc(C)c2OCc2ccc3c(c2C)CCN(C2CCOC2)C3)n1` (stereo not drawn) [Compound 150], the solubility at 24 h runs as follows: (pH 2.2, aqueous buffer) 100 µg/mL (≈ 167 µM); (pH 4.5, aqueous buffer) 67 µg/mL (≈ 112 µM); (pH 6.8, aqueous buffer) 78 µg/mL (≈ 130 µM).

As for `COCCOc1c(C(=O)O)cnn1-c1cccc(-c2cccc(C)c2OCc2ccc3c(c2C)CCN(C2CCOCC2)C3)n1` [Compound 151], the solubility at 24 h by setting is: (pH 2.2, aqueous buffer) 110 µg/mL (≈ 180 µM); (pH 4.5, aqueous buffer) 98 µg/mL (≈ 160 µM); (pH 6.8, aqueous buffer) 85 µg/mL (≈ 139 µM).

With `CCOc1c(C(=O)O)cnn1-c1cccc(-c2cccc(C)c2OCc2ccc3c(c2C)CCN(C[C@@H]2CCCOC2)C3)n1` [Compound 152], the concentration in solution (pH 2.2, aqueous buffer) (solubility at 24 h) came to 97 µg/mL (≈ 163 µM); the solubility at 24 h (pH 4.5, aqueous buffer) worked out at 74 µg/mL (≈ 124 µM); the concentration in solution (pH 6.8, aqueous buffer) (solubility at 24 h) was 74 µg/mL (≈ 124 µM).

For the compound `CCOc1c(C(=O)O)cnn1-c1cccc(-c2cccc(C)c2OCc2ccc3c(c2C)CCN(C[C@H]2CCCOC2)C3)n1` [Compound 153], the solubility at 24 h came out at 87 µg/mL (≈ 146 µM) (pH 2.2, aqueous buffer); 67 µg/mL (≈ 112 µM) (pH 4.5, aqueous buffer); 65 µg/mL (≈ 109 µM) (pH 6.8, aqueous buffer).

In turn, `CCOc1c(C(=O)O)cnn1-c1cccc(-c2cccc(C)c2OCc2ccc3c(c2CC)CCN(C2CCOCC2)C3)n1` [Compound 154] yielded a solubility at 24 h (pH 2.2, aqueous buffer) of 85 µg/mL (≈ 142 µM); a solubility at 24 h (pH 4.5, aqueous buffer) of 36 µg/mL (≈ 60.3 µM); a solubility at 24 h (pH 6.8, aqueous buffer) of 57 µg/mL (≈ 95.5 µM).

For the compound `CCOc1c(C(=O)O)cnn1-c1cccc(-c2cccc(C)c2OCc2ccc3c(c2C)CCN(C2COC(C)(C)OC2)C3)n1` [Compound 155], the solubility at 24 h runs as follows: (pH 2.2, aqueous buffer) 60 µg/mL (≈ 97.9 µM); (pH 4.5, aqueous buffer) 66 µg/mL (≈ 108 µM); (pH 6.8, aqueous buffer) 73 µg/mL (≈ 119 µM).

Compound `CCOc1c(C(=O)O)cnn1-c1cccc(-c2cccc(C)c2OCc2cc3c(c(C(F)(F)F)c2)CN(C2CCOCC2)CC3)n1` [Compound 157] had a solubility at 24 h (pH 2.2, aqueous buffer) of 94 µg/mL (≈ 148 µM); a solubility at 24 h (pH 4.5, aqueous buffer) of 70 µg/mL (≈ 110 µM); a solubility at 24 h (pH 6.8, aqueous buffer) of 62 µg/mL (≈ 97.4 µM).

With `COc1c(C(=O)O)cnn1-c1cccc(-c2cccc(C)c2OCc2cc3c(c(C(F)(F)F)c2)CN(C2CCOCC2)CC3)n1` [Compound 158], the solubility at 24 h reads like this: (pH 2.2, aqueous buffer) 64 µg/mL (≈ 103 µM); (pH 4.5, aqueous buffer) 43 µg/mL (≈ 69.1 µM); (pH 6.8, aqueous buffer) 41 µg/mL (≈ 65.8 µM).

On to `CCOc1c(C(=O)O)cnn1-c1cccc(-c2cccc(C)c2OCc2ccc3c(c2F)CCN(C2CCOCC2)C3)n1` [Compound 159], for which the solubility at 24 h is 86 µg/mL (≈ 147 µM) (pH 2.2, aqueous buffer); 55 µg/mL (≈ 93.8 µM) (pH 4.5, aqueous buffer); 51 µg/mL (≈ 86.9 µM) (pH 6.8, aqueous buffer).
